From patent US8962611B2, “Substituted imidazopyridines as HDM2 inhibitors” (Merck Sharp & Dohme Corp., priority 2012, dated 2015)

Target: HDM2 (residues 17 to 125) (Homo sapiens (Human), UniProt Q00987)
Test: HDM2 FRET assay (inhibition of p53 peptide binding to HDM2)
Conditions: read-out: FRET IC50; 0.5 nM HDM2, 3 nM FITC peptide, two hour incubation; values rounded to the nearest integer
Description: Methods: An HDM2 FRET assay was developed to assess the compounds' inhibitory activity towards binding of p53 protein. […] Ratio of em520/em495 was used to calculate % inhibition and to obtain IC50 with 4-parameter logistic equation.
Concentration of compound was plotted against em520/Cem495 ratio signal. To generate IC50 values, the dose-response curves were fitted to a standard sigmoidal curve and IC50 values were derived by nonlinear regression analysis.

Chain of HDM2 (residues 17 to 125) (Q00987 17-125): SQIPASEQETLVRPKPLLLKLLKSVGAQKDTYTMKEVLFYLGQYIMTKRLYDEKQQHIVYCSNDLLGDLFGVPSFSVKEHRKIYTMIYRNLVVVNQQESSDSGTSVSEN

`C[C@H]1CC[C@H](Cn2c(N3CCC[C@H]3c3nccs3)nc3cc(-c4noc(=O)[nH]4)nc(-c4cncc(Cl)c4)c32)CC1` [Example 3.81, 3-{4-(5-chloropyridin-3-yl)-3-[(trans-4-methylcyclohexyl)methyl]-2-[(2S)-2-(1,3-thiazol-2-yl)pyrrolidin-1-yl]-3H-imidazo[4,5-c]pyridin-6-yl}-1,2,4-oxadiazol-5(4H)-one] showed an IC50 of under 1 nM.
